For one series, the system named is aortic rings. Kind of series: β-amyloid augmentation of phenylephrine (PE) induced contraction of aortic rings. The series is classed as cell-based, rat. To be noted: for effect of drug on β-amyloid induced enhancement of PE mediated contraction: β-amyloid 5×10^-7 M, PE 4×10^-8 M, L-NMMA 10^-4 M, indomethacin 10^-5 M, SQ 29548 10^-5 M, catalase 1000 units/ml. On the procedure:
(§1) Freshly excised rat and porcine blood vessels were placed in Kreb's bicarbonate buffer equilibrated with 5% CO2 in O2. The buffer composition consisted of 118.2 mM NaCl, 4.7 mM KCl, 1.2 mM MgSO4, 2.5 mM CaCl2, 1.2 mM NaH2 PO4, 23 mM NaHCO3 and 11.2 mM glucose. After cleaning the vessels free of fat and other adhering tissues, the vessels were cut into ring segments of approximately 3mm in length. Care was taken not to damage the intimal surface.
(§2) The blood vessel preparations were mounted on stainless steel hooks attached to a force-displacement transducer and equilibrated under the optimum tension of 1.3 g for a period of sixty minutes in a tissue bath (10 ml) containing oxygenated (5% CO2 in O2) Kreb's buffer at 37° C. The buffer was changed every fifteen minutes. After equilibration for sixty minutes the viability of the blood vessel with intact endothelium was established by constricting the blood vessel using phenylephrine ([…]). This dose of phenylephrine elicited 80% of the maximum response. […] The vessel preparations were washed for fifteen minutes before various manipulations as described below.
The procedure was then repeated following incubation of the tissue with 10^-6 M β-amyloid for fifteen minutes (P1). The tissue was then rinsed and contractions repeated twice following fifteen minute incubation (P2 & P3) without further addition of β-amyloid. Arrows are shown for points of addition for P3.
Following a fifteen minute incubation, the preparations were contracted with 10^-7 M phenylephrine (PE) as described earlier. Control contractions with PE alone were carried out in presence of the various test compounds. Values represent the mean ±SEM of four or more experiments. The heat-inactivated SOD was prepared by placing it in boiling water for thirty minutes followed by cooling prior to use. The hydrogen peroxide-inactivated SOD was prepared by exposing SOD to 10 mM H2 O2 for thirty minutes at pH 8.5 and subsequent separation using Microcon filtration system. The amyloid induced PE contraction was blocked by active SOD. Neither albumin or inactivated SOD had any effect on the amyloid activity.
The effect of preincubation of blood vessel with 10^-6 M β-amyloidon contraction induced by phenylephrine (2,4,8, & 16×10^-8 M is shown in Table 1). The maximum contraction in the absence of β-amyloid is taken as 100% and the values obtained following exposure to β-amyloid are expressed as percent of control value. After washing out phenylephrine and acetylcholine of the control contraction, β-amyloid augmented the phenylephrine induced contractions (P1). This effect was blocked by SOD. Washing out the phenylephrine and acetylcholine of the post peptide contraction and repeating the contractions caused further enhancement (P2). Values represent the mean ±SEM of nine or more experiments.
The tissue was then incubated for fifteen minutes with β-amyloid (5×10^-7 M) with or without the drug, followed by contractions with PE. The concentrations compounds used were: L-NMMA, an inhibitor of NO synthase (10^-4 M); indomethacin, an inhibitor of the cyclooxygenase pathway (10^-5 M); SQ 29548, a thromboxane A2 receptor antagonist (10^-5 M); and catalase (1000 units/ml). Values are represented as percentage of the maximal contraction obtained with β-amyloid and PE alone and standardized to remove the intrinsic effects (if any) of each drug on PE contraction alone. The results represent the mean ±SEM of five or more experiments.

The subject of another series is rat coronary arteries. Kind of series: Constriction of rat coronary arteries by β-amyloid peptides and potentiation of U46619 constriction. The class given is cell-based. The note with it: for coronary artery vasoactivity induced by β-amyloid fragments (real time recording): 10^-6 M β-amyloid peptide. On the procedure:
The effects of β-amyloid peptide were examined on samples of rat coronary arteries prepared as described above. Referring specifically to FIG. 1, rat coronary arteries were treated with β-amyloid peptide (Aβ40) causing constriction of the coronary arteries.
FIG. 3 illustrates the effect of various amyloid fragments on the constriction of rat coronary arteries. Following control constriction with 10^-7 M U46619, the tissue samples were rinsed, equilibrated with buffer, and treated with 10^-6 M Aβ peptides for fifteen minutes. Following treatment with the Aβ peptides, the blood vessels were rinsed and again exposed to U46619. The values are expressed as percent of control constriction produced by U46619 alone.

In a further series the test system is blood vessel. Kind of series: Viability and endothelium test of blood vessel rings: phenylephrine constriction, acetylcholine relaxation. The class given is cell-based, rat. To be noted: vessel with or without endothelium. On the procedure: as §1
The endothelium was removed from some preparations by rubbing the inside of the lumen with a metal spatula for six to ten seconds and subsequent rinsing with buffer. The removal of endothelium was confirmed by testing for relaxation to acetylcholine [Furchgott and Zawadzki, 1980].
as §2

The next series relates to coronary arteries. Kind of series: Acetylcholine induced relaxation of U46619-preconstricted coronary arteries after Aβ40. The class given is cell-based, rat. The note with it: single dose 10^-6 M Aβ40; 10^-7 M U46619; acetylcholine 10^-9 M to 10^-5 M. The text has this:
The effect of pretreatment of coronary arteries with a single dose (10^-6 M) of Aβ40 on acetylcholine induced relaxation is shown in FIG. 20. The blood vessel was preconstricted with 10^-7 M U46619 and relaxed with increasing doses of acetylcholine (10^-9 M to 10^-5 M).

The text below walks through data of US6140309A, “Vasoactive effects and free radical generation by β-amyloid peptides” (University of South Florida, priority 1996, dated 2000).

`CNC(=N)NCCC[C@H](N)C(=O)O` [L-NMMA]: the “effect of drug on β-amyloid induced enhancement of PE mediated contraction” value (“effect of drug” for short) in the series with aortic rings is recorded as “none of the compounds used (L-NMMA, indomethacin, SQ29548, or catalase) had any significant effect on the enhancement response”.

For the compound `O=C(O)CCC/C=C\C[C@@H]1[C@H](CNNC(=O)Nc2ccccc2)[C@H]2CC[C@@H]1O2` [SQ29548], in the series on aortic rings, the “effect of drug” value is on record as “none of the compounds used (L-NMMA, indomethacin, SQ29548, or catalase) had any significant effect on the enhancement response”.

For the compound `CCCCC[C@H](O)/C=C/[C@@H]1[C@@H](C/C=C\CCCC(=O)O)[C@H]2CO[C@@H]1C2` [U46619], the “effect of the vasoconstrictor on the coronary artery” value in the series on rat coronary arteries (U46619 10^-7 M) was “also caused constriction of the blood vessel”.

With `COc1ccc2c(c1)c(CC(=O)O)c(C)n2C(=O)c1ccc(Cl)cc1` [indomethacin], the “effect of drug” value in the series on aortic rings is “none of the compounds used (L-NMMA, indomethacin, SQ29548, or catalase) had any significant effect on the enhancement response”.

As for `CNC[C@H](O)c1cccc(O)c1` [phenylephrine], the “constriction in response to phenylephrine” value in the series on blood vessel is recorded as “constricted in response to phenylephrine with or without endothelium”.

For the compound “Aβ25-35: β-amyloid peptide fragment (GSNKGAIIGLM; Amyloid-beta protein 42; UniProt P05067 696-706, looked up, fragment)”, the “coronary artery vasoactivity induced by β-amyloid fragments (real time recording)” value in the series with rat coronary arteries was “induce constriction of the coronary artery”.

Consider “Aβ40: Soluble Aβ containing forty amino acids”, for which, in the series with coronary arteries, the “effect on vasodilation induced by acetylcholine” value was “significantly reduced the vasodilation induced by acetylcholine”. The “duration of constriction compared among fragments” value in the series with rat coronary arteries (10^-6 M) is recorded as “longest sustained constriction”. Further, the “contraction induced in rat coronary artery” value in the series on rat coronary arteries (10^-6 M Aβ, fifteen minutes) is on record as “small but detectable contraction”. In addition, the “coronary artery vasoactivity induced by β-amyloid fragments (real time recording)” value in the series on rat coronary arteries is given as “induce constriction of the coronary artery”. For the same compound, in the series on rat coronary arteries (U46619 10^-7 M, 10^-6 M Aβ fifteen minutes), the “vasoconstriction induced by U46619 following treatment with Aβ” value is “significantly potentiated”.

For albumin, the “effect of test compound on amyloid induced PE contraction (specificity of SOD action)” value with aortic rings (preincubation before 10^-6 M β-amyloid, fifteen minutes, 10^-7 M PE (FIG. 12c)) is reported as “did not protect the blood vessel against the effects of β-amyloid”.

In the case of catalase, the “effect of drug” value in the series on aortic rings was “none of the compounds used (L-NMMA, indomethacin, SQ29548, or catalase) had any significant effect on the enhancement response”.
